Measured values from patent US6949255B2, “Inhibitory chemical formulation with preservative system” (priority 2000, dated 2005).

Experiments:
VSV = format: cell-based, vesicular stomatitis virus
[1] = system: vesicular stomatitis virus (VSV); format: cell-based
HIV = conditions: among prostitutes; Kreiss et al., JAMA 1992; cited from earlier work

Molecule	inhibition of VSV (VSV)	concentrations at which toxicity activity was absent (L-929 cells; mouse)	killing of L-929 cells (toxicity titer) (L-929 cells; mouse)	concentrations at which inhibitory activity was absent (VSV)	L-929 toxicity titer (L-929 cells; mouse)	killing of L-929 cells (L-929 cells)	inhibition of multiplication of VSV [1]	risk of HIV infection with use (HIV)
COC(=O)c1ccc(O)cc1 [Methylparaben]	approximately 30 fold	< 0.2%	greater than 300 fold					
CCCOC(=O)c1ccc(O)cc1 [Proplyparaben, propylparaben]	approximately 55 fold	< 0.004%		< 0.004%	approximately 15 fold			
CC(O)CO (centres unmarked) [Propylene G, propylene glycol]	almost no inhibition					almost no inhibition or killing at all		
OCC(O)CO [glycerol]	greater than 10 fold	below 8%		below 8%				
Nonoxynol-9 [Nonoxynol-9®]							almost identical degree of inhibition	increased risk of HIV infection
